# Results taken from US11224609B2, “Mithramycin derivatives having increased selectivity and anti-cancer activity” (University of Kentucky Research Foundation, priority 2017, dated 2022).
# Entries after “also recorded” stand apart in the source; their conditions may differ.
# Legend:
# [1] = system: NR0B1 promoter (binding promoter of EWS-FLI1); experiment: NR0B1 promoter luciferase reporter assay in stably transfected TC-32 cells; type: cell-based; conditions: 12 h treatment
# Text: Full-length NR0B1 promoter sequence was PCR amplified using Q5 high-fidelity DNA polymerase (New England Biolabs, Ipswich, Mass.) from genomic DNA of TC-32 cells and cloned into the pGLUC-Basic 2 vector (New England Biolabs, Ipswich, Mass.). XhoI and KpnI restriction sites were incorporated into the primers. After restriction enzyme (New England Biolabs, Ipswich, Mass.) digest and purification by gel electrophoresis, the target amplicon was ligated into the pGLUC-Basic 2 vector using T4 DNA ligase (Thermo Fisher Scientific, Waltham, Mass.). Chemically competent TOP10 E. coli cells were used to propagate vectors under ampicillin selection (100 μg/mL) (Thermo Fisher Scientific, Waltham, Mass.). The resulting vectors were extracted and purified using GeneJET plasmid prep kit (Thermo Fisher Scientific, Waltham, Mass.). […]
# Selected TC-32 cells, expressing either NR0B1 or CMV luciferase reporter vectors, were seeded in clear 96-well plates at a density of 10,000 cells/well. […] Lysates (80 μL) were transferred to a white luminescence plate. Luciferase substrate, either coelenterazine or D-luciferin (50 μL of 1× solution), for NR0B1 or CMV vectors, respectively, was added in a Glomax 96 microplate luminometer (Promega, Madison, Wis.) and luminescence was immediately measured. […] Luminescence results were normalized to cell viability.
# CMV promoter = CMV promoter luciferase reporter assay in stably transfected TC-32 cells (non-specific control); type: cell-based; conditions: 12 h, treated up to 10 μM
# Text: Full-length NR0B1 promoter sequence was PCR amplified using Q5 high-fidelity DNA polymerase (New England Biolabs, Ipswich, Mass.) from genomic DNA of TC-32 cells and cloned into the pGLUC-Basic 2 vector (New England Biolabs, Ipswich, Mass.). XhoI and KpnI restriction sites were incorporated into the primers. After restriction enzyme (New England Biolabs, Ipswich, Mass.) digest and purification by gel electrophoresis, the target amplicon was ligated into the pGLUC-Basic 2 vector using T4 DNA ligase (Thermo Fisher Scientific, Waltham, Mass.). Chemically competent TOP10 E. coli cells were used to propagate vectors under ampicillin selection (100 μg/mL) (Thermo Fisher Scientific, Waltham, Mass.). The resulting vectors were extracted and purified using GeneJET plasmid prep kit (Thermo Fisher Scientific, Waltham, Mass.). The purified vector was transfected into TC-32 cells using lipofectamine 3000 (Thermo Fisher Scientific, Waltham, Mass.) with subsequent G418 selection (1 mg/mL) (VWR, Radnor, Pa.). Separately, TC-32 cells were transfected with pCMV-Red Firefly Vector (Thermo Fisher Scientific, Waltham, Mass.) with subsequent puromycin selection (0.1 mg/mL) (Sigma, St. Louis, Mo.) as a control.
# Selected TC-32 cells, expressing either NR0B1 or CMV luciferase reporter vectors, were seeded in clear 96-well plates at a density of 10,000 cells/well. […] After a 12 h treatment, media was removed and cells were washed 3 times with DPBS (Thermo Fisher Scientific, Waltham, Mass.). Cells were directly lysed on a plate shaker for 30 min at room temperature using 100 μL of passive membrane lysis solution. Lysates (80 μL) were transferred to a white luminescence plate. Luciferase substrate, either coelenterazine or D-luciferin (50 μL of 1× solution), for NR0B1 or CMV vectors, respectively, was added in a Glomax 96 microplate luminometer (Promega, Madison, Wis.) and luminescence was immediately measured. Delay before and after injections were set to the default of 0.4 s and a 10 s integration time was used. All reagents used in this assay were from the dual luciferase reporter assay system (Promega, Madison, Wis.). Concurrently, an additional 96 well plate was seeded and treated under the exact same conditions to determine cell viability using resazurin assay. Luminescence results were normalized to cell viability.
# [2] = system: TC-71 Ewing sarcoma cells (EWS-FLI1 Type 1); conditions: 72 h growth inhibition
# [3] = system: VCaP prostate cancer cells (TMPRSS2-ERG); experiment: 72 h GI50 assay in VCaP; conditions: for GI50: read-out: VCaP Prostate Cancer TMPRSS2-ERG GI50, 72 h growth inhibition, VCaP cells; for Ratio of median GI50 Prostate cells lacking TMPRSS2-ERG:VCaP: selectivity for VCaP over other prostate cancer cell lines
# [4] = system: ES-8 Ewing sarcoma cells (EWS-FLI1 Type 2); experiment: 72 h GI50 assay in ES-8; conditions: read-out: ES-8 EWS-FLI1 Type 2 GI50; 72 h growth inhibition
# [5] = system: ES-2 Ewing sarcoma cells (EWS-FLI1 Type 3); experiment: 72 h GI50 assay in ES-2; conditions: read-out: ES-2 EWS-FLI1 Type 3 GI50; 72 h growth inhibition
# [6] = system: ES-7 Ewing sarcoma cells (EWS-FLI1 Type 4); experiment: 72 h GI50 assay in ES-7; conditions: read-out: ES-7 EWS-FLI1 Type 4 GI50; 72 h growth inhibition
# HeLa cells = experiment: 72 h GI50 assay in HeLa; conditions: read-out: HeLa GI50; 72 h growth inhibition
# A549 cells = experiment: 72 h GI50 assay in A549; conditions: read-out: A549 GI50; 72 h growth inhibition
# [7] = system: A-673 Ewing sarcoma cells (EWS-FLI1 Type 1); experiment: 72 h GI50 assay in A-673; conditions: read-out: A-673 EWS-FLI1 Type 1 GI50; 72 h growth inhibition
# LNCaP cells = experiment: 72 h GI50 assay in LNCaP; conditions: read-out: LNCaP GI50; 72 h growth inhibition
# DU 145 cells = experiment: 72 h GI50 assay in DU 145; conditions: read-out: DU 145 GI50; 72 h growth inhibition
# PANC-1 cells = experiment: 72 h GI50 assay in PANC-1; conditions: read-out: PANC-1 GI50; 72 h growth inhibition
# HCT 116 cells = experiment: 72 h GI50 assay in HCT 116; conditions: read-out: HCT 116 GI50; 72 h growth inhibition
# [8] = system: PC-3 (prostate cancer, no ETS translocation) cell line; experiment: 72 h growth inhibition (GI50) assay in PC-3; conditions: read-out: PC-3 Prostate cancer No ETS Translocation GI50; 72 h growth inhibition, PC-3 cells
SMILES,NR0B1 promoter driven luciferase signal [1],CMV promoter driven luciferase signal (CMV promoter),CMV promoter driven luciferase signal (CMV promoter; listed as MTMSA-Trp-Trp (61)),TC-71 EWS-FLI1 Type 1 GI50 [2],GI50 [3],Ratio of median GI50 Prostate cells lacking TMPRSS2-ERG:VCaP [3],GI50 [4],GI50 [5],GI50 [6],GI50 (HeLa cells),GI50 (A549 cells),GI50 [7],GI50 (LNCaP cells),GI50 (DU 145 cells),GI50 (PANC-1 cells),GI50 (HCT 116 cells),GI50 [8],CMV promoter driven luciferase signal (CMV promoter; listed as MTMSA-Phe-Trp (60))
"COC(=O)C(Cc1c[nH]c2ccccc12)NC(=O)C(Cc1c[nH]c2ccccc12)NC(=O)C(OC)C1Cc2cc3cc(OC4CC(OC5CC(O)C(O)C(C)O5)C(O)C(C)O4)c(C)c(O)c3c(O)c2C(=O)C1OC1CC(OC2CC(OC3CC(C)(O)C(O)C(C)O3)C(O)C(C)O2)C(O)C(C)O1 (stereo not shown) [Analogue 61, MTMSA-Trp-Trp]",decreased,no effect at all; also recorded: did not decrease,Lack of effect,35 nM,31 nM,18.3,114 nM,123 nM,48 nM,951 nM,1400 nM,364 nM,856 nM,246 nM,640 nM,198 nM,568 nM,–
"COC(=O)C(Cc1c[nH]c2ccccc12)NC(=O)C(Cc1ccccc1)NC(=O)C(OC)C1Cc2cc3cc(OC4CC(OC5CC(O)C(O)C(C)O5)C(O)C(C)O4)c(C)c(O)c3c(O)c2C(=O)C1OC1CC(OC2CC(OC3CC(C)(O)C(O)C(C)O3)C(O)C(C)O2)C(O)C(C)O1 (stereo not shown) [Analogue 60, MTMSA-Phe-Trp]",decreased,no effect at all; also recorded: did not decrease,–,44 nM,39 nM,25.4,53 nM,78 nM,46 nM,557 nM,2850 nM,168 nM,1610 nM,400 nM,574 nM,449 nM,1130 nM,Lack of effect
